Legend:
[1] = tested on: Vero cells; assay: Cytotoxicity assay, Vero cells; assay type: cell-based, African green monkey; conditions: read-out: Cytotoxicity IC50 Vero; Vero cells, 5-day incubation
[2] = tested on: CEM cells; conditions: for IC50: read-out: Cytotoxicity IC50 CEM, 5-day incubation
[3] = tested on: PBM cells; assay: Cytotoxicity assay, PBM cells; assay type: cell-based, Human; conditions: for IC50: read-out: Cytotoxicity IC50 PBM, 5-day incubation
[4] = tested on: HIV-1; assay type: cell-based; conditions: for EC50: read-out: Anti-HIV-1 activity in PBM cells EC50; for EC90: read-out: Anti-HIV-1 activity in PBM cells EC90
[5] = Cytotoxicity assay, Vero cells; assay type: cell-based, African green monkey; conditions: African green monkey, Vero cells (kidney)
[6] = in vitro; conditions: human, CEM cells (lymphoblastic cell line)
[7] = Cytotoxicity assay, PBM cells; assay type: cell-based, Human; conditions: human
[8] = tested on: PBM, CEM and Vero cells; assay: Cytotoxicity across all cell lines used; assay type: cell-based

| SMILES | IC50 at 5 day [6] [µM] | IC50 at 5 day [5] [µM] | IC50 at 5 day [7] [µM] | other results |
| --- | --- | --- | --- | --- |
| O=C(CN1C(=O)c2ccccc2S1(=O)=O)c1cccc(Cl)c1 [Compound 1, N-3′-Chlorophenacylsaccharine] |  |  |  | IC50 [1]: 54.8 µM; IC50 [2]: > 100 µM; IC50 [3]: > 100 µM; EC50 [4]: > 100 µM; EC90 [4]: > 100 µM |
| NNC(=O)CN1c2c(n[nH]c2-c2cccc(Cl)c2)-c2ccccc2S1(=O)=O [Compound 4] |  |  |  | IC50 [1]: > 100 µM; IC50 [2]: > 100 µM; IC50 [3]: > 100 µM; Anti-HIV-1 activity (in words) [4]: inactive; EC50 [4]: > 100 µM; EC90 [4]: > 100 µM; Toxicity to all the cell lines used (in words) [8]: nontoxic |
| O=C(CN1c2c(n[nH]c2-c2cccc(Cl)c2)-c2ccccc2S1(=O)=O)NN=Cc1ccc(Cl)cc1 [Compound 5c, N′-(4-Chlorobenzylidene)-2-[3-(3-chlorophenyl)-5,5-dioxidobenzo[e]pyrazolo[4,3-c][1,2]thiazin-4(2H)-yl]acetohydrazide] | 2.5 | 19.2 | 12.8 | EC50 [4]: 4 µM; Toxicity to all the cell lines used (in words) [8]: highly toxic |
| O=C(CN1c2c(n[nH]c2-c2cccc(Cl)c2)-c2ccccc2S1(=O)=O)NN=Cc1c(Cl)cccc1Cl [Compound 5g, 2-[3-(3-Chlorophenyl)-5,5-dioxidobenzo[e]pyrazolo[4,3-c] [1,2]thiazin-4(2H)-yl]-N′-(2,6-dichlorobenzylidene)acetohydrazide] | 12.5 | 60.5 | 52.5 | Toxicity to CEM cell line (in words) [2]: toxic to only CEM cell line; Toxicity in PBM cells (in words) [3]: not toxic |
| COc1ccc(C=NNC(=O)CN2c3c(n[nH]c3-c3cccc(Cl)c3)-c3ccccc3S2(=O)=O)c(OC)c1OC [Compound 5i, 2-[3-(3-Chlorophenyl)-5,5-dioxidobenzo[e]pyrazolo[4,3-c] [1,2]thiazin-4(2H)-yl]-N′-(2,3,4-trimethoxybenzylidene) acetohydrazide] | 31.6 | 29 | 21.8 | EC50 [4]: 4.2 µM |
| COc1cc(C=NNC(=O)CN2c3c(n[nH]c3-c3cccc(Cl)c3)-c3ccccc3S2(=O)=O)cc(OC)c1OC [Compound 5j, 2-[3-(3-chlorophenyl)-5,5-dioxidobenzo[e]pyrazolo[4,3-c] [1,2]thiazin-4(2H)-yl]-N′-(3,4,5-trimethoxybenzylidene) acetohydrazide] | 31.6 | 14.3 | 11 |  |
| O=C(CN1c2c(n[nH]c2-c2cccc(Cl)c2)-c2ccccc2S1(=O)=O)NN=Cc1ccccc1[N+](=O)[O-] [Compound 5k, 2-[3-(3-Chlorophenyl)-5,5-dioxidobenzo[e]pyrazolo[4,3-c] [1,2]thiazin-4(2H)-yl]-N′-(2-nitrobenzylidene)acetohydrazide] | > 100 | > 100 | > 100 | Anti-HIV-1 activity (in words) [4]: no inhibition; Toxicity to all the cell lines used (in words) [8]: no toxicity |
| O=C(CN1c2c(n[nH]c2-c2cccc(Cl)c2)-c2ccccc2S1(=O)=O)NN=Cc1cccc([N+](=O)[O-])c1 [Compound 5l, 2-[3-(3-Chlorophenyl)-5,5-dioxidobenzo[e]pyrazolo[4,3-c] [1,2]thiazin-4(2H)-yl]-N′-(3-nitrobenzylidene)acetohydrazide] | 47.3 | 27 | > 100 | Toxicity in PBM cells (in words) [3]: not toxic |

Now from value to molecule, other results behind:

| IC50 at 5 day [6] [µM] | SMILES | IC50 at 5 day [5] [µM] | IC50 at 5 day [7] [µM] | other results |
| --- | --- | --- | --- | --- |
| 26.7 | O=C(C1=C(O)c2ccccc2S(=O)(=O)N1)c1cccc(Cl)c1 [Compound 2, (3-chlorophenyl)(4-hydroxy-1,1-dioxido-2H-benzo[e] [1,2]thiazin-3-yl)methanone] | > 100 | > 100 |  |
| 22.4 | COC(=O)CN1C(C(=O)c2cccc(Cl)c2)=C(O)c2ccccc2S1(=O)=O [Compound 3, Methyl 2-[3-(3-chlorobenzoyl)-4-hydroxy-1,1-dioxido-2H-benzo[e][1,2]thiazin-2-yl]acetate] | 40.6 | 57.3 |  |
| 31.6 | O=C(CN1c2c(n[nH]c2-c2cccc(Cl)c2)-c2ccccc2S1(=O)=O)NN=Cc1ccc(F)cc1 [Compound 5a, 2-[3-(3-Chlorophenyl)-5,5-dioxidobenzo[e]pyrazolo[4,3-c] [1,2]thiazin-4(2H)-yl]-N′-(4-fluorobenzylidene)acetohydrazide] | 45.7 | 20 |  |
| 31.6 | O=C(CN1c2c(n[nH]c2-c2cccc(Cl)c2)-c2ccccc2S1(=O)=O)NN=Cc1cccc(Cl)c1 [Compound 5b, N′-(3-Chlorobenzylidene)-2-[3-(3-chlorophenyl)-5,5-dioxidobenzo[e]pyrazolo[4,3-c][1,2]thiazin-4(2H)-yl]acetohydrazide] | 16.4 | 36.3 |  |
| 12.9 | O=C(CN1c2c(n[nH]c2-c2cccc(Cl)c2)-c2ccccc2S1(=O)=O)NN=Cc1cccc(Br)c1 [Compound 5d, N′-(3-Bromobenzylidene)-2-[3-(3-chlorophenyl)-5,5-dioxidobenzo[e]pyrazolo[4,3-c][1,2]thiazin-4(2H)-yl]acetohydrazide] | > 100 | 22.9 |  |
| 5 | O=C(CN1c2c(n[nH]c2-c2cccc(Cl)c2)-c2ccccc2S1(=O)=O)NN=Cc1ccc(Br)cc1 [Compound 5e, N′-(4-Bromobenzylidene)-2-(3-(3-chlorophenyl)-5,5-dioxidobenzo[e]pyrazolo[4,3-c][1,2]thiazin-4(2H)-yl)acetohydrazide] | 46.5 | 66.7 | Toxicity in PBM cells (in words) [3]: not toxic |
| 13.8 | O=C(CN1c2c(n[nH]c2-c2cccc(Cl)c2)-c2ccccc2S1(=O)=O)NN=Cc1ccc(Cl)cc1Cl [Compound 5f, 2-[3-(3-Chlorophenyl)-5,5-dioxidobenzo[e]pyrazolo[4,3-c] [1,2]thiazin-4(2H)-yl]-N′-(2,4-dichlorobenzylidene)acetohydrazide] | 84.8 | 80.7 | Toxicity to CEM cell line (in words) [2]: toxic to only CEM cell line; Toxicity in PBM cells (in words) [3]: not toxic |
| 31.6 | COc1cccc(C=NNC(=O)CN2c3c(n[nH]c3-c3cccc(Cl)c3)-c3ccccc3S2(=O)=O)c1 [Compound 5h, 2-[3-(3-Chlorophenyl)-5,5-dioxidobenzo[e]pyrazolo[4,3-c] [1,2]thiazin-4(2H)-yl]-N′-(3-methoxybenzylidene)acetohydrazide] | 22.3 | 19 |  |
| 2.8 | O=C(CN1c2c(n[nH]c2-c2cccc(Cl)c2)-c2ccccc2S1(=O)=O)NN=Cc1ccc([N+](=O)[O-])cc1 [Compound 5m, 2-[3-(3-Chlorophenyl)-5,5-dioxidobenzo[e]pyrazolo[4,3-c] [1,2]thiazin-4(2H)-yl]-N′-[4-nitrobenzylidene]acetohydrazide] | 21.2 | 16.7 |  |
| 13.4 | O=C(CN1c2c(n[nH]c2-c2cccc(Cl)c2)-c2ccccc2S1(=O)=O)NN=Cc1ccc(C(=O)O)cc1 [Compound 5n, 4-[(2-(2-(3-(3-Chlorophenyl)-5,5-dioxidobenzo[e]pyrazolo [4,3-c][1,2]thiazin-4(2H)-yl)acetyl)hydrazono)methyl]benzoic acid] | 18.2 | 17.2 |  |
| 2.5 | CN(C)c1ccc(C=NNC(=O)CN2c3c(n[nH]c3-c3cccc(Cl)c3)-c3ccccc3S2(=O)=O)cc1 [Compound 5o, 2-[3-(3-Chlorophenyl)-5,5-dioxidobenzo[e]pyrazolo[4,3-c] [1,2]thiazin-4(2H)-yl]-N′-[4-(dimethylamino)benzylidene] acetohydrazide] | 10.4 | 23.7 |  |

Reference: PMC8312988 (Medicinal chemistry research : an international journal for …, 2015)
